For this test, the target named is wild-type human cardiac sodium channel, hNav1.5 (late sodium current) in HEK293 cells (Homo sapiens, UniProt Q14524). The test is described as follows: Late INa screening assay (automated whole-cell patch clamp, PatchXpress). As to conditions: late INa generated with 10 μM Tefluthrin (or 50 nM ATX II), HEK293 hNav1.5; for inhibition at 1 µM: HEK293, compound at 1 μM, read-out: Late INa 1 μM (percent block of late INa). It counts as cell-based. In a few lines:
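Percent block was derived from mean current 225–250 ms into a 250 ms depolarisation to −20 mV (holding −120 mV, every 10 s), normalised to the current left in Na-free solution. Whole-cell recordings came from HEK293 cells stably expressing α-subunit-only hNav1.5, at 24–27 °C. Late current was enhanced with 10 μM tefluthrin or 50 nM ATX II, then compound (typically 10 μM) was added three times over 7–8 min.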
(Patch clamp records ionic current or voltage across a cell membrane.)

Consider 30 compounds from patent publication US9079901B2, “Fused heterocyclic compounds as ion channel modulators” (Gilead Sciences, Inc., priority 2010, dated 2015).

Chain of wild-type human cardiac sodium channel, hNav1.5 (late sodium current) in HEK293 cells (Q14524 whole entry): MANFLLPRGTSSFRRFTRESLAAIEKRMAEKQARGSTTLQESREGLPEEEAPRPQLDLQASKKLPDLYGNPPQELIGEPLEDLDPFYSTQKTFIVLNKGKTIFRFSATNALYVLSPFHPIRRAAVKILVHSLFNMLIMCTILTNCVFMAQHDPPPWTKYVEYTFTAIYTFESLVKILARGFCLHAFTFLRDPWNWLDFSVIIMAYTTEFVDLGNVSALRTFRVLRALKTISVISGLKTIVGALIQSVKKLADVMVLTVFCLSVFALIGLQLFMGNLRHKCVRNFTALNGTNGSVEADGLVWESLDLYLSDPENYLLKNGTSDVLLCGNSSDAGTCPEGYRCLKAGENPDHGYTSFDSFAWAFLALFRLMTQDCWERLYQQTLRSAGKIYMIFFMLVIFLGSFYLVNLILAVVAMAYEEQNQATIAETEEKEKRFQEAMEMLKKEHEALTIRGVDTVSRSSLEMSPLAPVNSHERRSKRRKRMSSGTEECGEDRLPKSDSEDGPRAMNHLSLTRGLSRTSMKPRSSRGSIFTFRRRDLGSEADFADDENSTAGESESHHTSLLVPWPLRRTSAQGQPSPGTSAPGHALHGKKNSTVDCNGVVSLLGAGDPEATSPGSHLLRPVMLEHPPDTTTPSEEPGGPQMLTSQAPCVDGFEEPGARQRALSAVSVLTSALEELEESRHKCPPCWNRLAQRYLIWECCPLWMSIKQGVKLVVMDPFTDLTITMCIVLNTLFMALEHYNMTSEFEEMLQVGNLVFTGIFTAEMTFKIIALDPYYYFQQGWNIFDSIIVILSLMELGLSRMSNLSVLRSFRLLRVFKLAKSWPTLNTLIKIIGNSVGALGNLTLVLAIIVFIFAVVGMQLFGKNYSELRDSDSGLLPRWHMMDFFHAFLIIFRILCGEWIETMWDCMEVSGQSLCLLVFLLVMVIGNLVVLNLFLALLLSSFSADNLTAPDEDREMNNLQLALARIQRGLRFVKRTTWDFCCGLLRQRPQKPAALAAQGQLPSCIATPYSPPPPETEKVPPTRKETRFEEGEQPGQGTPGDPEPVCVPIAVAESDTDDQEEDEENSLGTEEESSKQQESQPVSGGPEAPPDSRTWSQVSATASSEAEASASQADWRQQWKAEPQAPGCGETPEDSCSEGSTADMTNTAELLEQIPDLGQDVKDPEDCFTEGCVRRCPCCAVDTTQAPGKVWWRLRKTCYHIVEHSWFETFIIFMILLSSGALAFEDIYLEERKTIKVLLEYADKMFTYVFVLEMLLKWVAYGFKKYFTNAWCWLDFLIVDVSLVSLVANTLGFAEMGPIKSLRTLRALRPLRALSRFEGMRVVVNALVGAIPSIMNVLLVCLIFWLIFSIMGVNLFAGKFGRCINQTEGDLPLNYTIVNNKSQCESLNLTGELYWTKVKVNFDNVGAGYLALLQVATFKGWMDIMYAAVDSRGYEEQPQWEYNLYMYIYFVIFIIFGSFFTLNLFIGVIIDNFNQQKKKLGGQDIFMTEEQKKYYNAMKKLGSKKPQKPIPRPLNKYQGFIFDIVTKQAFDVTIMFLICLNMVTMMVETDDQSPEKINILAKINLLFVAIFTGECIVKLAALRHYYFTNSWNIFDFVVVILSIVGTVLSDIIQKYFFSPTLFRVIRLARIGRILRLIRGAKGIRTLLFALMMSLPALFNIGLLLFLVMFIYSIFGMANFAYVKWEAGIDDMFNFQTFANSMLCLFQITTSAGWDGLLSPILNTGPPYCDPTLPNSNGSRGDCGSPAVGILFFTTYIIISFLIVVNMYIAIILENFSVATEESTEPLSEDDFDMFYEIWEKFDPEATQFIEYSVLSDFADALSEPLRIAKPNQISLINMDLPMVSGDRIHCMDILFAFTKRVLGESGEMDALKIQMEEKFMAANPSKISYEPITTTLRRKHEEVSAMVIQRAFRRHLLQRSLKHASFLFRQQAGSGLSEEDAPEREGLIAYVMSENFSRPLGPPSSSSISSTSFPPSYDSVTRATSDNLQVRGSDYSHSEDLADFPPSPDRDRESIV

Take `N#Cc1ccccc1OCC(O)Cn1nc2ccc(-c3ccc(OC(F)(F)F)cc3)cn2c1=O` (stereo not drawn) [compound 101, 2-(2-hydroxy-3-(3-oxo-6-(4-(trifluoromethoxy)phenyl)-[1,2,4]triazolo[4,3-a]pyridin-2(3H)-yl)propoxy)benzonitrile]: the inhibition at 1 µM is 11.7%.
On the same count and under the same terms, in the case of `CC(Cn1nc2ccc(-c3ccc(OC(F)(F)F)cc3)cn2c1=O)c1ccccn1` (stereo not drawn) [compound 102, 2-(2-(pyridin-2-yl)propyl)-6-(4-(trifluoromethoxy)phenyl)-[1,2,4]triazolo[4,3-a]pyridin-3(2H)-one] it was 36.2%; in that of `COc1cccc(CCn2nc3ccc(-c4ccc(OC(F)(F)F)cc4)cn3c2=O)n1` [compound 103, 2-(2-(6-methoxypyridin-2-yl)ethyl)-6-(4-(trifluoromethoxy)phenyl)-[1,2,4]triazolo[4,3-a]pyridin-3(2H)-one], 49.7%.
Still for that read-out and setting: in the case of `COc1cc(F)ccc1OCC(Cn1nc2ccc(-c3ccc(OC(F)(F)F)cc3)cn2c1=O)OC` (stereo not drawn) [compound 104, 2-(3-(4-fluoro-2-methoxyphenoxy)-2-methoxypropyl)-6-(4-(trifluoromethoxy)phenyl)-[1,2,4]triazolo[4,3-a]pyridin-3(2H)-one] it was 41.5%; in that of `CCOC(COc1ccc(F)cc1OC)Cn1nc2ccc(-c3ccc(OC(F)(F)F)cc3)cn2c1=O` (stereo not drawn) [compound 105, 2-(2-ethoxy-3-(4-fluoro-2-methoxyphenoxy)propyl)-6-(4-(trifluoromethoxy)phenyl)-[1,2,4]triazolo[4,3-a]pyridin-3(2H)-one], 45%; in that of `CCOc1ccnc(OCCn2nc3ccc(-c4ccc(OC(F)(F)F)cc4)cn3c2=O)n1` [compound 106, 2-(2-(4-ethoxypyrimidin-2-yloxy)ethyl)-6-(4-(trifluoromethoxy)phenyl)-[1,2,4]triazolo[4,3-a]pyridin-3(2H)-one], 47.2%.
The same measure, in the same setting: for `Cc1nc2ccc(OCC(O)Cn3nc4ccc(-c5ccc(OC(F)(F)F)cc5)cn4c3=O)cc2s1` (stereo not drawn) [compound 107, 2-(2-hydroxy-3-(2-methylbenzo[d]thiazol-6-yloxy)propyl)-6-(4-(trifluoromethoxy)phenyl)-[1,2,4]triazolo[4,3-a]pyridin-3(2H)-one] the value was 22.4%; for `CC(C)Oc1ccccc1OCC(O)Cn1nc2ccc(-c3ccc(OC(F)(F)F)cc3)cn2c1=O` (stereo not drawn) [compound 108, 2-(2-hydroxy-3-(2-isopropoxyphenoxy)propyl)-6-(4-(trifluoromethoxy)phenyl)-[1,2,4]triazolo[4,3-a]pyridin-3(2H)-one], 41.5%; for `O=c1n(C2COCC2Oc2ncccn2)nc2ccc(-c3ccc(OC(F)(F)F)cc3)cn12` (stereo not drawn) [compound 109, 2-(4-(pyrimidin-2-yloxy)tetrahydrofuran-3-yl)-6-(4-(trifluoromethoxy)phenyl)-[1,2,4]triazolo[4,3-a]pyridin-3(2H)-one], 12.9%.
For `Cc1noc(Cn2nc3ccc(-c4ccc([Si](C)(C)C)cc4)cn3c2=O)n1` [compound 110, 2-((3-methyl-1,2,4-oxadiazol-5-yl)methyl)-6-(4-(trimethylsilyl)phenyl)-[1,2,4]triazolo[4,3-a]pyridin-3(2H)-one], the inhibition at 1 µM was 44.3%.
`O=c1n(CCc2ncccn2)nc2ccc(-c3ccc(OC(F)(F)F)cc3)cn12` [compound 111, 2-(2-(pyrimidin-2-yl)ethyl)-6-(4-(trifluoromethoxy)phenyl)-[1,2,4]triazolo[4,3-a]pyridin-3(2H)-one]: the inhibition at 1 µM was 18.6%.
Still for that read-out and setting: in the case of `O=C1C(Oc2ccccc2)CCN1CCn1nc2ccc(-c3ccc(OC(F)(F)F)cc3)cn2c1=O` (stereo not drawn) [compound 112, 2-(2-(2-oxo-3-phenoxypyrrolidin-1-yl)ethyl)-6-(4-(trifluoromethoxy)phenyl)-[1,2,4]triazolo[4,3-a]pyridin-3(2H)-one] it was 11.1%; in that of `O=c1n(CCc2ccncn2)nc2ccc(-c3ccc(OC(F)(F)F)cc3)cn12` [compound 113, 2-(2-(pyrimidin-4-yl)ethyl)-6-(4-(trifluoromethoxy)phenyl)-[1,2,4]triazolo[4,3-a]pyridin-3(2H)-one], 17.8%.
Turning to `O=c1n(CCc2cnccn2)nc2ccc(-c3ccc(OC(F)(F)F)cc3)cn12` [compound 114, 2-(2-(pyrazin-2-yl)ethyl)-6-(4-(trifluoromethoxy)phenyl)-[1,2,4]triazolo[4,3-a]pyridin-3(2H)-one], the inhibition at 1 µM worked out at 14.4%.
Same read-out and setting: in the case of `O=c1n(CCOc2nccc(-c3ccccc3)n2)nc2ccc(-c3ccc(OC(F)(F)F)cc3)cn12` [compound 115, 2-(2-(4-phenylpyrimidin-2-yloxy)ethyl)-6-(4-(trifluoromethoxy)phenyl)-[1,2,4]triazolo[4,3-a]pyridin-3(2H)-one] it was 22.9%.
On the same count and under the same terms, for `COc1cnc(OCCn2nc3ccc(-c4ccc(OC(F)(F)F)cc4)cn3c2=O)nc1` [compound 116, 2-(2-(5-methoxypyrimidin-2-yloxy)ethyl)-6-(4-(trifluoromethoxy)phenyl)-[1,2,4]triazolo[4,3-a]pyridin-3(2H)-one] the value was 31.3%; for `Cc1nccnc1CCn1nc2ccc(-c3ccc(OC(F)(F)F)cc3)cn2c1=O` [compound 117, 2-(2-(3-methylpyrazin-2-yl)ethyl)-6-(4-(trifluoromethoxy)phenyl)-[1,2,4]triazolo[4,3-a]pyridin-3(2H)-one], 18.2%; for `COc1ccc(Br)c(CCn2nc3ccc(-c4ccc(OC(F)(F)F)cc4)cn3c2=O)n1` [compound 118, 2-(2-(3-bromo-6-methoxypyridin-2-yl)ethyl)-6-(4-(trifluoromethoxy)phenyl)-[1,2,4]triazolo[4,3-a]pyridin-3(2H)-one], 47.9%.
With `O=c1n(CCCc2ccc(F)c(-c3ncco3)c2)nc2ccc(-c3ccc(OC(F)(F)F)cc3)cn12` [compound 119, 2-(3-(4-fluoro-3-(oxazol-2-yl)phenyl)propyl)-6-(4-(trifluoromethoxy)phenyl)-[1,2,4]triazolo[4,3-a]pyridin-3(2H)-one], the inhibition at 1 µM came to 22%.
On to `O=c1n(CCOc2ncccn2)nc2ccc(-c3ccc(Oc4ccc(Cl)cc4)cc3)cn12` [compound 120, 6-(4-(4-chlorophenoxy)phenyl)-2-(2-(pyrimidin-2-yloxy)ethyl)-[1,2,4]triazolo[4,3-a]pyridin-3(2H)-one], for which the inhibition at 1 µM worked out at 73.9%.
The same measure, in the same setting: for `O=c1n(CCCc2ccc(F)c(-c3cccnc3)c2)nc2ccc(-c3ccc(OC(F)(F)F)cc3)cn12` [compound 121, 2-(3-(4-fluoro-3-(pyridin-3-yl)phenyl)propyl)-6-(4-(trifluoromethoxy)phenyl)-[1,2,4]triazolo[4,3-a]pyridin-3(2H)-one] the value was 13.1%; for `O=c1n(CCOc2ncccn2)nc2ccc(-c3ccc(Oc4ccc(F)cc4)cc3)cn12` [compound 122, 6-(4-(4-fluorophenoxy)phenyl)-2-(2-(pyrimidin-2-yloxy)ethyl)-[1,2,4]triazolo[4,3-a]pyridin-3(2H)-one], 58.5%; for `C[Si](C)(C)c1ccc(-c2ccc3nn(CCOc4ncccn4)c(=O)n3c2)cc1` [compound 123, 2-(2-(pyrimidin-2-yloxy)ethyl)-6-(4-(trimethylsilyl)phenyl)-[1,2,4]triazolo[4,3-a]pyridin-3(2H)-one], 38%.
Take `CCOC(COc1ccc2nc(C)sc2c1)Cn1nc2ccc(-c3ccc(OC(F)(F)F)cc3)cn2c1=O` (stereo not drawn) [compound 124, 2-(2-ethoxy-3-(2-methylbenzo[d]thiazol-6-yloxy)propyl)-6-(4-(trifluoromethoxy)phenyl)-[1,2,4]triazolo[4,3-a]pyridin-3(2H)-one]: the inhibition at 1 µM came to 31.2%.
The same measure, in the same setting: in the case of `CCOc1ccnc(OC2COCC2n2nc3ccc(-c4ccc(OC(F)(F)F)cc4)cn3c2=O)n1` (stereo not drawn) [compound 125, 2-(4-(4-ethoxypyrimidin-2-yloxy)tetrahydrofuran-3-yl)-6-(4-(trifluoromethoxy)phenyl)-[1,2,4]triazolo[4,3-a]pyridin-3(2H)-one] it was 14.1%.
Take `CN(C)c1nc(OCCn2nc3ccc(-c4ccc(OC(F)(F)F)cc4)cn3c2=O)ncc1F` [compound 126, 2-(2-(4-(dimethylamino)-5-fluoropyrimidin-2-yloxy)ethyl)-6-(4-(trifluoromethoxy)phenyl)-[1,2,4]triazolo[4,3-a]pyridin-3(2H)-one]: the inhibition at 1 µM amounted to 32.6%.
Same read-out and setting: in the case of `Cc1noc(Cn2nc3ccc(-c4cc(F)c(Oc5ccccc5)c(F)c4)cn3c2=O)n1` [compound 127, 6-(3,5-difluoro-4-phenoxyphenyl)-2-((3-methyl-1,2,4-oxadiazol-5-yl)methyl)-[1,2,4]triazolo[4,3-a]pyridin-3(2H)-one] it was 21.5%.
Regarding `COCc1nc(Cn2nc3ccc(-c4ccc(OC(F)(F)F)cc4)cn3c2=O)no1` [compound 128, 2-((5-(methoxymethyl)-1,2,4-oxadiazol-3-yl)methyl)-6-(4-(trifluoromethoxy)phenyl)-[1,2,4]triazolo[4,3-a]pyridin-3(2H)-one], the inhibition at 1 µM was 22%.
`N#Cc1ccnc(OCCn2nc3ccc(-c4ccc(OC(F)(F)F)cc4)cn3c2=O)n1` [compound 129]: the “Late INa 1 μM (percent block of late INa)” value (compound at 1 μM) was found to be 16.1133%.
With `COc1nc(OCCn2nc3ccc(-c4ccc(OC(F)(F)F)cc4)cn3c2=O)ncc1Cl` [compound 130, 2-(2-(5-chloro-4-methoxypyrimidin-2-yloxy)ethyl)-6-(4-(trifluoromethoxy)phenyl)-[1,2,4]triazolo[4,3-a]pyridin-3(2H)-one], the inhibition at 1 µM was 32.4%.
